Common to all, as to experiment: TR-FRET enzymatic activity assay against PI3K isoforms
Holding throughout (assay type): biochemical
For orientation: TR-FRET usually uses a lanthanide donor and a delayed reading to cut background.

In one experiment the target is PI3Kβ (Homo sapiens (Human), UniProt P42338). The settings on record: PI3Kβ, TR-FRET, 2×Km ATP, 30 minutes at 25° C. An excerpt: (§1) The compounds of formula (I) were characterized for their enzymatic activity against the PI3K isoforms. […] TR-FRET monitored the formation of 3,4,5-inositol triphosphate molecule that competed with fluorescently labeled PIP3 for binding to the GRP-1 pleckstrin homology domain protein.

For a further experiment, the target named is PI3Kγ (Homo sapiens (Human), UniProt P48736). The following applies: 2×Km ATP, 30 minutes at 25° C.
Source text: as §1

Another experiment addresses PI3Kδ (Homo sapiens (Human), UniProt O00329). The settings on record: 2×Km ATP, 30 minutes at 25° C.
Source text: as §1

One may read the IC50 as the concentration at which inhibition is half-maximal. A higher IC50 goes with a need for much substance.

Each structure is given as a SMILES string.

PI3Kβ, sequence (P42338 whole entry, the tested form may be a part, canonical isoform): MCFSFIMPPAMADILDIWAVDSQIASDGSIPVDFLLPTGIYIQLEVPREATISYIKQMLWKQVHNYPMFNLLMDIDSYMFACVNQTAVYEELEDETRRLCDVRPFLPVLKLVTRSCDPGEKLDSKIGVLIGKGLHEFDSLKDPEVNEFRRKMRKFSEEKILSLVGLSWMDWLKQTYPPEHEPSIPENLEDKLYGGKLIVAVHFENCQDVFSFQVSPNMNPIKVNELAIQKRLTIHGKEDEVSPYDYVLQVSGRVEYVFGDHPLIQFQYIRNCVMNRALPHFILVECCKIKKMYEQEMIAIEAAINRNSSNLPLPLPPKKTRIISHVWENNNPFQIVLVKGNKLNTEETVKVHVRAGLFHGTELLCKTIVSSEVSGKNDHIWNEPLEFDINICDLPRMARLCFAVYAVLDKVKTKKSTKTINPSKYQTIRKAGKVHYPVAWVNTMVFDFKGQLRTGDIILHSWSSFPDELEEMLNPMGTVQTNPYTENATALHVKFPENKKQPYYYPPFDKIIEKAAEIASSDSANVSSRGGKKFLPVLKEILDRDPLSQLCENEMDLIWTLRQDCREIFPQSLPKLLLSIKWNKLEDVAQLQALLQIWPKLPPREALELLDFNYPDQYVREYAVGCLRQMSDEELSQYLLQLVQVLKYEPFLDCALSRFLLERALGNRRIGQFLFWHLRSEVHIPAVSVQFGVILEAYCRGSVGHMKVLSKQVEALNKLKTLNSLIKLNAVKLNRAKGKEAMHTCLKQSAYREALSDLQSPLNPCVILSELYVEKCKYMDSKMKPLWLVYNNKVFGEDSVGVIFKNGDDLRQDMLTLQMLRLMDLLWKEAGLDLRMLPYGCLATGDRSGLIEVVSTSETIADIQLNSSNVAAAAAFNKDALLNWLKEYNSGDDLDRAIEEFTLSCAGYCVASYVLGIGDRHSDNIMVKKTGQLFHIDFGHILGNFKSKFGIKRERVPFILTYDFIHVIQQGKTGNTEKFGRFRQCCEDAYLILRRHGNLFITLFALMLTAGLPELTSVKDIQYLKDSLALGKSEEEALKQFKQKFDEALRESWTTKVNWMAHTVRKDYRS
PI3Kβ, sequence (P27986 whole entry partner, the tested form may be a part, canonical isoform): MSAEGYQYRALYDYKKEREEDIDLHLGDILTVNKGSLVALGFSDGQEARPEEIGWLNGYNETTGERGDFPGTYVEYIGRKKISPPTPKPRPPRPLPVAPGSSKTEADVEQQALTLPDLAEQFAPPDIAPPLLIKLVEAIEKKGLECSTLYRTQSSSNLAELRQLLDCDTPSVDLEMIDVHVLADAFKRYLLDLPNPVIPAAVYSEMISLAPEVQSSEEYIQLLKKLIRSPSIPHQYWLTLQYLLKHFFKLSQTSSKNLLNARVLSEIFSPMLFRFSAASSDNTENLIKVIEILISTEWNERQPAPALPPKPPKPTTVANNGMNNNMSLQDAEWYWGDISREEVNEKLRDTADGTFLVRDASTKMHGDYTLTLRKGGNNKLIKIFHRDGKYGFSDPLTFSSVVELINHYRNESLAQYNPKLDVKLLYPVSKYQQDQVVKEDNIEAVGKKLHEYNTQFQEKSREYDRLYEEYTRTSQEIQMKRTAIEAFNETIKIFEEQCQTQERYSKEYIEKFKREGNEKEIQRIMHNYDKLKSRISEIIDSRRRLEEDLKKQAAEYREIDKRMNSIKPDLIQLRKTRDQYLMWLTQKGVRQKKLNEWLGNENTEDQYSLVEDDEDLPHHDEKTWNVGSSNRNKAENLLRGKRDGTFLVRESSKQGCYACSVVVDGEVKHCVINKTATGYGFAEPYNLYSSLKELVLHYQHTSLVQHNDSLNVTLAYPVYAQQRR
PI3Kγ, sequence (P48736 whole entry): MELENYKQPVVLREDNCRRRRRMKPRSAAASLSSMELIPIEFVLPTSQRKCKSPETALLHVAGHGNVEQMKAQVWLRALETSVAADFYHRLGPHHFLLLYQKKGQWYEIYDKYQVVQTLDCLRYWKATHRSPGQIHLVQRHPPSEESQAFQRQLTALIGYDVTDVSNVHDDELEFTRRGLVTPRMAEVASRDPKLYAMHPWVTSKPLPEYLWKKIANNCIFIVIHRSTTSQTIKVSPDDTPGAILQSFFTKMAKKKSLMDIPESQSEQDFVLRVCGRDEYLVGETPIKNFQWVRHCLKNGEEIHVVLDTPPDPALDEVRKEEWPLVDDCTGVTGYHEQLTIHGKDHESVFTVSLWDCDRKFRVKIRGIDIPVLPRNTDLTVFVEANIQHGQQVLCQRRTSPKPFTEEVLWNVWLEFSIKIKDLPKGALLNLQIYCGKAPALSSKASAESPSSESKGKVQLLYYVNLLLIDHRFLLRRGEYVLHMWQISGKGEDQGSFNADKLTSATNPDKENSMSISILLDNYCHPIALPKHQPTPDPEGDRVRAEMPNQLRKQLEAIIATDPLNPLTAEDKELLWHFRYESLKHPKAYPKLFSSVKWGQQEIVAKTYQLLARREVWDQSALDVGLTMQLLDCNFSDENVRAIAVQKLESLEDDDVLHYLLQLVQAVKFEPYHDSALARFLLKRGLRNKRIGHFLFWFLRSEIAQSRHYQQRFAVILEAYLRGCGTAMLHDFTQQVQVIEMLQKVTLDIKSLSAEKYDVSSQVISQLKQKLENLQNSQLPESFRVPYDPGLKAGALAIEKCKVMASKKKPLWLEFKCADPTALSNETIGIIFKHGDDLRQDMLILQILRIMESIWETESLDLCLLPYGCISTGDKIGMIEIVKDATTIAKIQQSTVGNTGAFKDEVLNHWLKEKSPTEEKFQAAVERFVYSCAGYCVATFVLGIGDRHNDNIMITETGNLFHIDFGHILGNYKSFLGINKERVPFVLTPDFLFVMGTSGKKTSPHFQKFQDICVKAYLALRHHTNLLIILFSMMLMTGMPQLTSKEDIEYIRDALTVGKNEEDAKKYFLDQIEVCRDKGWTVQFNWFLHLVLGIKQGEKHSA
PI3Kδ, sequence (O00329 whole entry): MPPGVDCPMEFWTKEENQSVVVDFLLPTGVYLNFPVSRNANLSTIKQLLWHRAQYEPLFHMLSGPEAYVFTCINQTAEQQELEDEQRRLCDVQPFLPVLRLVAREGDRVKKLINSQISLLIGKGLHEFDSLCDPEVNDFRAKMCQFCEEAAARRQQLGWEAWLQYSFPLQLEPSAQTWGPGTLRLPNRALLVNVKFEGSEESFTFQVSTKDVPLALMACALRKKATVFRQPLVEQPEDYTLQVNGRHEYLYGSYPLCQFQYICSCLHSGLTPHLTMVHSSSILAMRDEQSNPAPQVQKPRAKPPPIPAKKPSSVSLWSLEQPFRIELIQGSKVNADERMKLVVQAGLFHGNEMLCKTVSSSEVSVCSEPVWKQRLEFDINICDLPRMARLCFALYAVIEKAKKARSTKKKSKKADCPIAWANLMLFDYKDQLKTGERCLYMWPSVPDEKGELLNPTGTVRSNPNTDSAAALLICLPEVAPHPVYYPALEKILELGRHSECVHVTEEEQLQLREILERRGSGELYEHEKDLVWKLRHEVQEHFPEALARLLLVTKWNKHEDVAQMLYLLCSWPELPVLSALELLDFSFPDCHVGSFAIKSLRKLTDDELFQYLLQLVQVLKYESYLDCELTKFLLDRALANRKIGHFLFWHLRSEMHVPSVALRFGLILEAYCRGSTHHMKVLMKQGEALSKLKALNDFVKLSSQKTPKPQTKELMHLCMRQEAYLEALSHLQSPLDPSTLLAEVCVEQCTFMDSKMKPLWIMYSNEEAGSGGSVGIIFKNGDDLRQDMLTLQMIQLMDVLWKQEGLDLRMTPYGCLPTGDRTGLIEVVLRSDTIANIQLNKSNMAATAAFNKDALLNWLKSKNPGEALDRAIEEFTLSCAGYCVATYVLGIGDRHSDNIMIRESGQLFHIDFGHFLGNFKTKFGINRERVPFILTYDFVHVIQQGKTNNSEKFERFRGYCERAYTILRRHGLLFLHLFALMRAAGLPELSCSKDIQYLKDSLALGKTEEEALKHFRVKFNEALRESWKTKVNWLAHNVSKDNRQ
PI3Kδ, sequence (P27986 whole entry partner): as the sequence (P27986 whole entry partner, the tested form may be a part, canonical isoform) above

`N#CCCCn1c([C@@H](Nc2nc(N)nc(N)c2C#N)C2CC2)nc2cccc(Cl)c2c1=O` [Compound 113, (S)-2,4-diamino-6-(((5-chloro-3-(3-cyanopropyl)-4-oxo-3,4-dihydroquinazolin-2-yl)(cyclopropyl)methyl)amino)pyrimidine-5-carbonitrile]: the IC50 on PI3Kβ worked out at 17 nM; at PI3Kγ it was 59 nM; against PI3Kδ, 1 nM.
On the same counts, the results for `N#CCCCCn1c([C@@H](Nc2nc(N)nc(N)c2C#N)C2CC2)nc2cccc(Cl)c2c1=O` [Compound 114, (S)-2,4-diamino-6-(((5-chloro-3-(4-cyanobutyl)-4-oxo-3,4-dihydroquinazolin-2-yl)(cyclopropyl)methyl)amino)pyrimidine-5-carbonitrile] are 12 nM, 130 nM and 0.8 nM.
With `CC[C@H](Nc1nc(N)nc(N)c1C#N)c1nc2cccc(Cl)c2c(=O)n1CCCC#N` [Compound 115, (S)-2,4-diamino-6-((1-(5-chloro-3-(3-cyanopropyl)-4-oxo-3,4-dihydroquinazolin-2-yl)propyl)amino)pyrimidine-5-carbonitrile], the IC50 against PI3Kβ worked out at 190 nM; against PI3Kγ it was 190 nM; at PI3Kδ, 9 nM.
For the compound `CC[C@H](Nc1nc(N)nc(N)c1C#N)c1nc2cccc(Cl)c2c(=O)n1CCCCC#N` [Compound 116, (S)-2,4-diamino-6-((1-(5-chloro-3-(4-cyanobutyl)-4-oxo-3,4-dihydroquinazolin-2-yl)propyl)amino)pyrimidine-5-carbonitrile], the values for the concentration for half-maximal inhibition (IC50) at PI3Kβ, at PI3Kγ and at PI3Kδ were 150 nM, 540 nM and 5 nM, respectively.
On the same counts, the results for `CC[C@H](Nc1nc(N)nc(N)c1C#N)c1nc2cccc(Cl)c2c(=O)n1CCCS(C)(=O)=O` [Compound 117, (S)-2,4-diamino-6-((1-(5-chloro-3-(3-(methylsulfonyl)propyl)-4-oxo-3,4-dihydroquinazolin-2-yl)propyl)amino)pyrimidine-5-carbonitrile] are 250 nM, 3000 nM and 21 nM.
In the case of `CS(=O)(=O)CCCn1c([C@@H](Nc2nc(N)nc(N)c2C#N)C2CC2)nc2cccc(Cl)c2c1=O` [Compound 118, (S)-2,4-diamino-6-(((5-chloro-3-(3-(methylsulfonyl)propyl)-4-oxo-3,4-dihydroquinazolin-2-yl)(cyclopropyl)methyl)amino)pyrimidine-5-carbonitrile], the IC50 at PI3Kβ stood at 13 nM; against PI3Kγ, 570 nM; against PI3Kδ it was 2 nM.
`CS(=O)(=O)CCCn1c([C@@H](Nc2nc(N)nc(N)c2C#N)C2CC2)nc2c(Cl)ccc(Cl)c2c1=O` [Compound 119, (S)-2,4-diamino-6-((cyclopropyl(5,8-dichloro-3-(3-(methylsulfonyl)propyl)-4-oxo-3,4-dihydroquinazolin-2-yl)methyl)amino)pyrimidine-5-carbonitrile]: the 50% inhibitory concentration (IC50) against PI3Kβ was 8 nM; against PI3Kγ, 1100 nM; against PI3Kδ it was 2 nM.
On the same counts, the results for `CS(=O)(=O)CCCn1c([C@@H](Nc2nc(N)nc(N)c2C#N)C2CC2)nc2c(Cl)cc(F)cc2c1=O` [Compound 120, (S)-2,4-diamino-6-(((8-chloro-6-fluoro-3-(3-(methylsulfonyl)propyl)-4-oxo-3,4-dihydroquinazolin-2-yl)(cyclopropyl)methyl)amino)pyrimidine-5-carbonitrile] are 30 nM, 1900 nM and 8 nM.
`N#Cc1c(N)nc(N)nc1N[C@H](c1nc2c(Cl)cc(F)cc2c(=O)n1CCCC(N)=O)C1CC1` [Compound 121, (S)-4-(8-chloro-2-(cyclopropyl((2,6-diamino-5-cyanopyrimidin-4-yl)amino)methyl)-6-fluoro-4-oxoquinazolin-3(4H)-yl)butanamide]: the IC50 on PI3Kβ was 9 nM; on PI3Kγ it was 760 nM; at PI3Kδ, 2 nM.
On the same counts, the results for `CS(=O)(=O)CCCCn1c([C@@H](Nc2nc(N)nc(N)c2C#N)C2CC2)nc2cccc(Cl)c2c1=O` [Compound 122, (S)-2,4-diamino-6-(((5-chloro-3-(4-(methylsulfonyl)butyl)-4-oxo-3,4-dihydroquinazolin-2-yl)(cyclopropyl)methyl)amino)pyrimidine-5-carbonitrile] are 23 nM, 120 nM and 0.7 nM.
On the same counts, the results for `C[C@H](Nc1nc(N)nc(N)c1C#N)c1nc2cccc(Cl)c2c(=O)n1C[C@H]1CCNC1` [Compound 125, 2,4-diamino-6-(((S)-1-(5-chloro-4-oxo-3-((S)-pyrrolidin-3-ylmethyl)-3,4-dihydroquinazolin-2-yl)ethyl)amino)pyrimidine-5-carbonitrile] are 49 nM, 2300 nM and 3 nM.
Taken in the same sequence, the figures for `C[C@H](Nc1nc(N)nc(N)c1C#N)c1nc2cccc(Cl)c2c(=O)n1C[C@@H]1CCNC1` [Compound 126, 2,4-diamino-6-(((S)-1-(5-chloro-4-oxo-3-((R)-pyrrolidin-3-ylmethyl)-3,4-dihydroquinazolin-2-yl)ethyl)amino)pyrimidine-5-carbonitrile] were 24 nM, 2500 nM and 0.9 nM.
`C[C@H](Nc1nc(N)nc(N)c1C#N)c1nc2cccc(Cl)c2c(=O)n1CCCN1CCOCC1` [Compound 127, (S)-2,4-diamino-6-((1-(5-chloro-3-(3-morpholinopropyl)-4-oxo-3,4-dihydroquinazolin-2-yl)ethyl)amino)pyrimidine-5-carbonitrile]: the values for the IC50 against PI3Kβ, on PI3Kγ and against PI3Kδ were 130 nM, 720 nM and 2 nM, respectively.
Taken in the same sequence, the figures for `C[C@H](Nc1nc(N)nc(N)c1C#N)c1nc2cccc(Cl)c2c(=O)n1CCC(=O)N(C)C` [Compound 128, (S)-3-(5-chloro-2-(1-((2,6-diamino-5-cyanopyrimidin-4-yl)amino)ethyl)-4-oxoquinazolin-3(4H)-yl)-N,N-dimethylpropanamide] were 530 nM, 280 nM and 15 nM.
On the same counts, the results for `COC(C)(C)CCn1c([C@H](C)Nc2nc(N)nc(N)c2C#N)nc2cccc(Cl)c2c1=O` [Compound 129, (S)-2,4-diamino-6-((1-(5-chloro-3-(3-methoxy-3-methylbutyl)-4-oxo-3,4-dihydroquinazolin-2-yl)ethyl)amino)pyrimidine-5-carbonitrile] are 290 nM, 530 nM and 2 nM.
Taken in the same sequence, the figures for `CCOCCn1c([C@H](C)Nc2nc(N)nc(N)c2C#N)nc2cccc(Cl)c2c1=O` [Compound 130, (S)-2,4-diamino-6-((1-(5-chloro-3-(2-ethoxyethyl)-4-oxo-3,4-dihydroquinazolin-2-yl)ethyl)amino)pyrimidine-5-carbonitrile] were 120 nM, 410 nM and 3 nM.
Take `COCC(COC)n1c([C@H](C)Nc2nc(N)nc(N)c2C#N)nc2cccc(Cl)c2c1=O` [Compound 131, (S)-2,4-diamino-6-((1-(5-chloro-3-(1,3-dimethoxypropan-2-yl)-4-oxo-3,4-dihydroquinazolin-2-yl)ethyl)amino)pyrimidine-5-carbonitrile]: the half-inhibitory concentration (IC50) at PI3Kβ was 210 nM; against PI3Kγ, 1400 nM; against PI3Kδ it was 13 nM.
On the same counts, the results for `COC[C@H](C)n1c([C@H](C)Nc2nc(N)nc(N)c2C#N)nc2cccc(Cl)c2c1=O` [Compound 132, 2,4-diamino-6-(((S)-1-(5-chloro-3-((S)-1-methoxypropan-2-yl)-4-oxo-3,4-dihydroquinazolin-2-yl)ethyl)amino)pyrimidine-5-carbonitrile] are 58 nM, 330 nM and 2 nM.
For `C[C@H](Nc1ncnc(N)c1C#N)c1nc2cccc(Cl)c2c(=O)n1CCCN1CCCCC1` [Compound 134, (S)-4-amino-6-((1-(5-chloro-4-oxo-3-(3-(piperidin-1-yl)propyl)-3,4-dihydroquinazolin-2-yl)ethyl)amino)pyrimidine-5-carbonitrile], the IC50 is 550 nM against PI3Kβ, ≥ 10000 nM against PI3Kγ and 4 nM against PI3Kδ.
Consider `C[C@H](Nc1ncnc(N)c1C#N)c1nc2cccc(Cl)c2c(=O)n1CCCN1CCN(C)CC1` [Compound 135, (S)-4-amino-6-((1-(5-chloro-3-(3-(4-methylpiperazin-1-yl)propyl)-4-oxo-3,4-dihydroquinazolin-2-yl)ethyl)amino)pyrimidine-5-carbonitrile], for which the IC50 is 640 nM against PI3Kβ, ≥ 10000 nM on PI3Kγ and 6 nM against PI3Kδ.
On the same counts, the results for `C[C@H](Nc1ncnc(N)c1C#N)c1nc2cccc(Cl)c2c(=O)n1CCN1CCCC1` [Compound 136, (S)-4-amino-6-((1-(5-chloro-4-oxo-3-(2-(pyrrolidin-1-yl)ethyl)-3,4-dihydroquinazolin-2-yl)ethyl)amino)pyrimidine-5-carbonitrile] are 990 nM, ≥ 10000 nM and 25 nM.
Taken in the same sequence, the figures for `C[C@H](Nc1nc(N)nc(N)c1C#N)c1nc2cccc(Cl)c2c(=O)n1CCN1CCCC1` [Compound 137, (S)-2,4-diamino-6-((1-(5-chloro-4-oxo-3-(2-(pyrrolidin-1-yl)ethyl)-3,4-dihydroquinazolin-2-yl)ethyl)amino)pyrimidine-5-carbonitrile] were 760 nM, ≥ 10000 nM and 27 nM.
Taken in the same sequence, the figures for `C[C@H](Nc1nc(N)nc(N)c1C#N)c1nc2cccc(Cl)c2c(=O)n1CCc1ccn[nH]1` [Compound 140, (S)-4-((1-(3-(2-(1H-pyrazol-5-yl)ethyl)-5-chloro-4-oxo-3,4-dihydroquinazolin-2-yl)ethyl)amino)-2,6-diaminopyrimidine-5-carbonitrile] were 410 nM, 590 nM and 6 nM.
